Experimental data published in patent US12503432B2, “Ionizable lipids for nucleic acid delivery” (Global Life Sciences Solutions Canada ULC, priority 2019, dated 2025).

How the values were obtained:
[1] = TNS fluorescence assay: experimental pKa of formulated lipid nanoparticles; format: physicochemical; details: experimental surface pKa of empty LNP, cationic lipid/DSPC/cholesterol/PEG-lipid (50/10/38.5/1.5)
Method: The pKa of each cationic lipid was determined in lipid nanoparticles using an assay based on fluorescence of 6-(p-Toluidino)-2-naphthalenesulfonic acid sodium salt (TNS, Sigma Aldrich), which is a fluorescent probe for the conformational state of proteins^5. Empty lipid nanoparticles comprising of cationic lipid/DSPC/cholesterol/PEG-lipid (50/10/38.5/1.5) in distilled water at a concentration of 3.125 mM total lipid are formulated using NanoAssemblr® Spark™, and were then was characterized for LNP quality on the Zetasizer™ using a 30× dilution with 1×PBS in the low volume cuvette. Lipid nanoparticles were further diluted 4× using distilled water to 0.781 mM total lipid. TNS was prepared as a 25 μM stock solution in distilled water. Then 6.4 μL of diluted LNP samples of 0.781 mM total lipid were mixed with 10 μL of diluted TNS to a final volume of 250 μL with buffer containing 10 mM HEPES, 10 mM MES, 10 mM NH4OAc and 130 mM NaCl where the pH ranged from 3 to 9 in 0.5 pH increments.
Samples were mixed thoroughly, and the fluorescence intensity was measured at room temperature in a BioTek™ Synergy™ H1 Hybrid Multi-Mode Monochromator™ Fluorescence Microplate Reader using excitation and emission wavelengths of 321 nm and 445 nm respectively. A sigmoidal best fit analysis was applied to the fluorescence data using GraphPad Prism™ software, and the pKa was measured as the pH at half-maximal fluorescence intensity.

[2] = LNP characterization: size and PDI by dynamic light scattering, mRNA encapsulation efficiency by RiboGreen assay; format: physicochemical
Method: Particle sizes and “polydispersity index” (PDI) of the lipid particle were measured by dynamic light scattering (DLS). PDI indicates the width of the particle distribution. This is a parameter calculated from a cumulative analysis of the (DLS)-measured intensity autocorrelation function assuming a single particle size mode and a single exponential fit to the autocorrelation function. […] The particles produced by mechanical micromixers such as the NanoAssemblr® Spark™ and NanoAssemblr® Benchtop (Precision NanoSystems Inc.) are substantially homogeneous in size assuming all other variables are neutral. A lower PDI indicates a more homogenous population of lipid particles. The Spark™ instrument is used in a screening setting to identify the lead compositions. Once the composition is selected, the lipid particle can be fine-tuned using the NanoAssemblr® Benchtop. Once the process parameters Flow Rate Ratio and Total Flow Rate is identified for the specific nanoparticle composition, the nanoparticle technology can be scaled up using the same process parameter values.
Lipid particles were also manufactured by a larger microfluidic mixer instrument, the NanoAssemblr® Ignite™ for testing. Briefly, 350 μL of mRNA was diluted using 100 mM sodium acetate buffer to the required concentration of 0.2 to 0.3 mg/mL. Lipid particle samples were then prepared by running both fluids, namely, nucleic acids in aqueous solvent and Lipid Mix in ethanol at a flow ratio of 3:1 and at a total flow rate of 12 ml/min in the microfluidic mixer. Following mixing in the microfluidic device, the post cartridge lipid nucleic acid particle sample was diluted into RNAse free tubes containing three to 40 volumes of phosphate buffered saline (PBS), pH 7.4. Ethanol was finally removed through dialysis in PBS, pH 7, or using Amicon™ centrifugal filters (Millipore, USA) at 3000 RPM, or using TFF systems. Once the required concentration was achieved, the lipid nucleic acid particles were filter sterilized using 0.2 μm filters in aseptic conditions. Final encapsulation efficiency was measured by the Ribogreen™ assay. Quant-iT™ RiboGreen® RNA Reagent and Kit (Invitrogen) following manufacturer directions.
Messenger RNA or plasmid nucleic acid therapeutic (NAT) as described below, was diluted using sodium acetate buffer to the required concentration. Lipid nucleic acid particle (LNAP) samples were then prepared by running both fluids using the NanoAssemblr® Spark instrument. Briefly, […] of nucleic acids in 100 mM sodium acetate buffer in a total volume of 32 μL was mixed with 16 μL of 37.5 mM lipid mix solution as required by the N/P ratios (4, 6, or 10 in illustrated examples). The microfluidically mixed lipid nucleic acid particles (LNAP) made in the instrument were immediately diluted down with 48 μL Ca++ and Mg++ free 1× PBS at pH 7.4 in the aqueous output well. These LNAP were immediately collected into microcentrifuge tubes containing 96 μL of the same buffer at pH 7.4. Encapsulation efficiency was measured by a modified Ribogreen™ assay (Quanti-iT RiboGreen™ RNA assay kit, Fisher). This information was used to establish the desired dosage.
After the lipid particles were made as described in Example 17, particle size (hydrodynamic diameter of the particles) was determined by Dynamic Light Scattering (DLS) using a ZetaSizer™ Nano ZS™ (Malvern Instruments, UK). He/Ne laser of 633 nm wavelength was used as the light source. Data were measured from the scattered intensity data conducted in backscattering detection mode (measurement angle=173). Measurements were an average of 10 runs of two cycles each per sample. Z-Average size was reported as the particle size, and is defined as the harmonic intensity averaged particle diameter. These LNP characteristics, as well as the results of the mRNA encapsulation efficiency for various Lipid Mixes are also described in the application are shown in Tables 4, 5 and 6. […]

[3] = test system: C57BL/6 mice; experiment: In vivo delivery of EPO-encoded mRNA LNP via intravenous route, serum EPO ELISA; set-up: key to EPO Protein expression: IV in mice: *: The number of asterix symbols indicates protein expression levels interpreted by the inventors from quantitative data; **: The number of asterix symbols indicates protein expression levels interpreted by the inventors from quantitative data; ***: The number of asterix symbols indicates protein expression levels interpreted by the inventors from quantitative data; ****: The number of asterix symbols indicates protein expression levels interpreted by the inventors from quantitative data; *****: The number of asterix symbols indicates protein expression levels interpreted by the inventors from quantitative data; *******: The number of asterix symbols indicates protein expression levels interpreted by the inventors from quantitative data; details: qualitative grade interpreted from quantitative data
Text: Lipid Nanoparticles with the composition IL/DSPC/Cholesterol/PEG-DMG2000 (LM 02—see Table 3) were used to encapsulate recombinant human erythropoietin (EPO) encoded mRNA with 5-moU modifications [TriLink CleanCapo 5-moU EPO mRNA L7201]. To create the LNP, lipid mix in ethanol was microfluidically mixed with a low PH buffered solution of 5-moU EPO mRNA mixer at an N/P ratio of 6 using a NanoAssemblr® Ignite™ microfluidic mixer. The microfluidically mixed particles were downstream processed using Amicon® ultra 15 10 kDa MWCO units (EMD Millipore) filtration technique. The RNA loaded lipid particles were then characterized for size, PDI and Encapsulation Efficiency (EE). Size and PDI were measured using dynamic light scattering techniques described above, and nucleic acid encapsulation efficiency was calculated using a Quant-iT RiboGreen RNA assay as described supra, modified to use hEPO mNA as the standard instead if the standard RNA in the kit. The hydrodynamic diameter of these mRNA-LNPs was ˜70 nm with a PDI in the range of 0.02 to 0.1 and an encapsulation efficiency of ˜97.8%.
Animals were handled according to the Institutional Animal Care and Use Committee ethics protocols. For experiments, 6-8 week old C57BL/6 mice were purchased from Envigo (South Kent, WA, USA). For in vivo activity, female C57BL/6 mice were treated intravenously with EPO mRNA LNPs at specified dosages of 0.5-3 mg/Kg. Samples of 50-75 μL of blood were collected 6 h post administration via saphenous vein, and at regular time intervals of 24 h or 48 h.
After harvest, blood was immediately prepared to produce serum samples using standard techniques, and stored at −80 degrees C. Briefly, after collection, the blood was allowed to clot at room temperature for 15-30 minutes. The clot was removed by centrifuging the tubes at 1000-2000×g for 10 min at 4 degrees Celsius. The clear golden-yellow color supernatant was carefully removed and transferred to sterile screw-capped clear polypropylene tubes on ice. The serum was then stored, if necessary, at −80° C. until analysis.
Samples were thawed, then analyzed at appropriate dilutions for EPO protein expression and for cytokine/chemokine levels. The total serum EPO levels were evaluated using Quantikine® IVD EPO ELISA kit (Bio-Techne, Minneapolis, MN, USA).
Following i.v administration of a 0.5 mg/Kg dose of recombinant human EPO-encoded mRNA LNPs containing ionizable lipid MC3, PNI 121 or PNI 123 using the LM02 composition at N/P 6, EPO expression levels at 6 h (upper, FIG. 6) and at 24 h (lower, FIG. 6) in C56BL/6 mice were examined; hEPO protein was measured using Quantikine® IVD® ELISA Human Erythropoietin Immunoassay protocol.

[4] = 5-moU EPO encoded LNPs, IL:DSPC:cholesterol:DMG-PEG (50:10:38.5:1.5), N/P 6
[5] = OVA encoded LNPs, payload WT OVA, LM02, N/P 8
[6] = Table 4 LNPs, payload and lipid mix not stated

For CC/C=C\CC1C(CC(=O)OCC(COCCCCCCCC/C=C\C/C=C\CCCCC)OCCCCCCCC/C=C\C/C=C\CCCCC)CCC1OC(=O)CCN(C)C (centres unmarked) [PNI 128], the pKa [1] was 5.56, the “Diameter (Z. ave, nm)” value [2, 4] was 64.8 nm and the “Encapsulation Efficiency (%)” value [2, 4] was 97.1%. For the same molecule, the “Polydispersity Index (PDI)” value [2, 4] was 0.04, the “Diameter (Z. ave, nm)” value [2, 5] was 74.9 nm and the “Encapsulation Efficiency (%)” value [2, 5] was 97.0%. The “Polydispersity Index (PDI)” value [2, 5] was 0.02, the “Diameter (Z. ave, nm)” value [2, 6] was 61.7 nm and the “Encapsulation Efficiency (%)” value [2, 6] was 88.2%. For the same molecule, the “Polydispersity Index (PDI)” value [2, 6] was 0.09 and the “EPO Protein expression: IV in mice” value [3] was “****”.

CC/C=C\CC1C(CC(=O)OCC(COCCCCCCCC/C=C\C/C=C\CCCCC)OCCCCCCCC/C=C\C/C=C\CCCCC)CCC1OC(=O)C1CCN(C)C1 (centres unmarked) [PNI 135] showed a pKa [1] of 5.48.

For CC/C=C\CC1C(CC(=O)OCC(COCCCCCCCC/C=C\C/C=C\CCCCC)OCCCCCCCC/C=C\C/C=C\CCCCC)CCC1OC(=O)Cc1cn(C)cn1 (centres unmarked) [PNI 143], the pKa [1] was 4.31, the “Diameter (Z. ave, nm)” value [2, 4] was 88.0 nm and the “Encapsulation Efficiency (%)” value [2, 4] was 98.7%. The “Polydispersity Index (PDI)” value [2, 4] was 0.87.

Molecule CCCCC/C=C\C/C=C\CCCCCCCCOCC(COC(=O)CC1CCC(OC(=O)CCCN(C)C)C1)OCCCCCCCC/C=C\C/C=C\CCCCC (centres unmarked) [PNI 148] has a pKa [1] of 6.77.

CC/C=C\CC1C(CC(=O)OCC(COC(=O)CCCCCCC/C=C\C/C=C\CCCCC)OC(=O)CCCCCCC/C=C\C/C=C\CCCCC)CCC1OC(=O)CCCN(C)C (centres unmarked) [PNI 269] showed a pKa [1] of 6.28.

In the case of CC/C=C\CC1C(CC(=O)OCCC(CCCCCCCC/C=C\C/C=C\CCCCC)OC(=O)C(CCCCCC)CCCCCCCC)CCC1OC(=O)CCCN(C)C (centres unmarked) [PNI 510], the pKa [1] is reported as 6.2.

Work on CC/C=C\CC1C(CC(=O)OCC(COC(=O)CCCCCCCC2CC2CCCCCCCC)OC(=O)CCCCCCCC2CC2CCCCCCCC)CCC1OC(=O)CCCN(C)C (centres unmarked) [PNI 515] yielded a pKa [1] of 6.27.

In the case of CC/C=C\CC1C(CC(=O)OCC(COCCCCCCCCC2CC2CCCCCCCC)OCCCCCCCCC2CC2CCCCCCCC)CCC1OC(=O)CCCN(C)C (centres unmarked) [PNI 543], the pKa [1] is reported as 6.31, the “Diameter (Z. ave, nm)” value [2, 4] is reported as 73.6 nm and the “Encapsulation Efficiency (%)” value [2, 4] is reported as 98.7%. The “Polydispersity Index (PDI)” value [2, 4] was 0.14 and the “EPO Protein expression: IV in mice” value [3] was “***”.

CC/C=C\CC1C(CC(=O)OCC(COCCCCCCCCCCCCCC)OCCCCCCCCCCCCCC)CCC1OC(=O)CCN(C)C (centres unmarked) [PNI 547] gave a pKa [1] of 5.95.

In the case of CCCCCCCCCCCCCCOCC(COC(=O)CC1CCC(OC(=O)CCN(C)C)C1CCCCC)OCCCCCCCCCCCCCC (centres unmarked) [PNI 548], the pKa [1] is reported as 5.5.

For CC/C=C\CC1C(CC(=O)OCC(COC(=O)CCCCCCCC2CC2CCCCCCCC)OC(=O)CCCCCCCC2CC2CCCCCCCC)CCC1OC(=O)CCN(C)C (centres unmarked) [PNI 551], the pKa [1] was 5.5.

With CC/C=C\CC1C(CC(=O)OCCC(CCCCCCCC/C=C\C/C=C\CCCCC)OC(=O)C(CCCCCC)CCCCCCCC)CCC1OC(=O)CCN(C)C (centres unmarked) [PNI 552] the pKa [1] was 5.42.

Work on CC/C=C\CC1C(CC(=O)OCCC(CCCCCCCC)OC(=O)C(CCCCCC)CCCCCCCC)CCC1OC(=O)CCCN(C)C (centres unmarked) [PNI 562] yielded a pKa [1] of 6.36.

CC/C=C\CC1C(CC(=O)OCCC(CCCCCCCC/C=C\C/C=C\CCCCC)OC(=O)C(CCCCCC)CCCCCCCC)CCC1OC(=O)C1(C)CCN(C)CC1 (centres unmarked) [PNI 563] gave a pKa [1] of 5.96.

For CC/C=C\CC1C(CC(=O)OCC(COCCCCCCCC/C=C\C/C=C\CCCCC)OCCCCCCCC/C=C\C/C=C\CCCCC)CCC1OC(=O)CN1CCN(C)CC1 (centres unmarked) [PNI 567], the pKa [1] was 6.23.
